Laboratory results as given in patent US6475536B2, “Pharmaceutical and cosmetic formulations with antimicrobial activity” (Indena S.p.A., priority 1996, dated 2002).
Converted amounts (≈) assume the structure as drawn.

Legend:
Experiment in all cases: In vitro antimicrobial activity (M.I.C.)
Format in all cases: cell-based
[1] = system: Candida albicans ATCC 10231; settings: ATCC10231, average values
Experimental: (§1) The first is prepared from Krameria triandra and from Mesua ferrea. The activity, expressed in M.I.C. (minimum inhibitory concentration), was evaluated by normal terms within the art. Moreover, one of ordinary skill in the art with little or no experimentation can optimize the results for a particular antimicrobial compound or mixtures of compounds.

[2] = system: Trichophyton mentagrophytes 193; settings: average values
Experimental: as §1

[3] = system: Acinetobacter cal. OSMPV; settings: average values
Experimental: as §1

[4] = system: Bacteroides fragilis; settings: average values
Experimental: as §1

[5] = system: Escherichia coli CNUR 1; settings: CNUR1, average values
Experimental: as §1

[6] = system: Propionibacterium acnes; settings: Cutibacterium acnes, average values
Experimental: as §1

[7] = system: Pseudomonas aeruginosa CNUR 4; settings: CNUR4, average values
Experimental: as §1

[8] = system: Staphilococcus aureus ATCC6538; settings: average values
Experimental: as §1

[9] = system: Staphilococcus aureus MPR5; settings: average values
Experimental: as §1

[10] = system: Staphilococcus epidermis CPHL; settings: average values
Experimental: as §1

[11] = system: Streptococcus feaecalis LEP Br; settings: average values
Experimental: as §1

| MIC [1] [µg/mL] | MIC [2] [µg/mL] | MIC [3] [µg/mL] | MIC [4] [µg/mL] | MIC [5] [µg/mL] | MIC [6] [µg/mL] | MIC [7] [µg/mL] | MIC [8] [µg/mL] | MIC [9] [µg/mL] | MIC [10] [µg/mL] | MIC [11] [µg/mL] | SMILES |
| --- | --- | --- | --- | --- | --- | --- | --- | --- | --- | --- | --- |
| 2 (≈ 4.81 µM) | 2 (≈ 4.81 µM) |  |  |  |  |  |  |  |  |  | Clc1ccc(COC(Cn2ccnc2)c2ccc(Cl)cc2Cl)c(Cl)c1 (centres unmarked) [miconazole] |
|  |  | 2 (≈ 5.5 µM) | 32 (≈ 88.1 µM) | 0.51 (≈ 1.4 µM) | 32 (≈ 88.1 µM) | 32 (≈ 88.1 µM) | 0.5 (≈ 1.38 µM) | 1 (≈ 2.75 µM) | 1 (≈ 2.75 µM) | 16 (≈ 44 µM) | CN1CCN(c2c(F)cc3c(=O)c(C(=O)O)cn4c3c2SCC4)CC1 [rufloxacin] |
